Counter-ions that a name gives are not always drawn.
Experiments:
CCK-B receptor = biological target: T1, CCK-B receptor (Mus musculus, UniProt P56481); experiment: CCK-B receptor antagonism: displacement of [3H]CCK-8 from crude membrane of cerebral cortex; format: binding, mouse (male ddY); settings: [3H]CCK-8 1 nM, 90 min, 25° C.
T1 construct: crude membrane specimen from mouse cerebral cortex; from tissue; host or cells: cerebral cortex of male ddY mice, crude membranes
T1 sequence (P56481 1-453): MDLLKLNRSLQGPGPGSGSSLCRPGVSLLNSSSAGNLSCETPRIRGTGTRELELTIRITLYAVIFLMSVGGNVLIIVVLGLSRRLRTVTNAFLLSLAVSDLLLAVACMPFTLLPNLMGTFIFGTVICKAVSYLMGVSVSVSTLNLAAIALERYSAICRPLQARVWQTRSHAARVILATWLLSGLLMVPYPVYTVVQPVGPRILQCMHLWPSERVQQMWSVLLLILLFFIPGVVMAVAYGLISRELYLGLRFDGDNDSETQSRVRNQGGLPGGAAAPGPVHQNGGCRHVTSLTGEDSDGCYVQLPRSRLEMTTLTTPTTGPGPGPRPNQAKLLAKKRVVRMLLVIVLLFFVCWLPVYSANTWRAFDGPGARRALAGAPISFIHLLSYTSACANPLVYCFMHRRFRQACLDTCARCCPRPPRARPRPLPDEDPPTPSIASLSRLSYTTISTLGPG
Method: (§1) The pharmacological effect of compounds (I) prepared in Examples above were evaluated in vitro with respect to antagonistic activity against gastrin receptor, CCK-B receptor or CCK-A receptor, using fundic gland cells of guinea pig, crude membrane specimen from mouse cerebral cortex, or crude membrane specimen from mouse pancreas, respectively.
(§2) Male Hartley guinea pig (450-600 g) or male ddY mouse (24-30 g) were used.
(§3) (2) CCK-A Receptor Antagonism and CCK-B Receptor Antagonism Preparation of CCK receptor preparations Male ddY mice (24 to 30 g) were killed by decapitation and cerebral cortex (CCK-B) and pancreas (CCK-A) were extracted immediately. Each of cerebral cortex and pancreas was mixed with 50 mM Tris-HCl buffer (pH 7.4) and homogenized with a teflon-glass homogenizer and polytron homogenizer to obtain crude membrane specimens.
(§4) Preparation of test compounds and procedures of displacing assay
(§5) A 1M solution of a compound to be tested in DMSO is prepared and diluted with 50% DMSO to obtain a ten-fold dilution series.
(§6) The reaction is initiated by the addition of crude membrane specimen to solutions of different concentration each containing [^3 H]CCk-8 (final concentration, 1 nM). The mixture is incubated for 90 min at 25° C., filtered through glass filter with aspiration and washed with a cooled 50 mM Tris buffer. After the addition of Aquazol-2 cocktail the radioactivity is counted. The same procedure was repeated using 50% DMSO solution or Ceruletide (final concentration, 1 μM) instead of a solution of test compound so as to obtain the control value regarding total binding or the value regarding non-specific binding, respectively.
(§7) The IC50 was determined by plotting the ratio (%) of specific binding of a test compound to that of control on semilogarithmic graph and obtaining the concentration corresponding to 50%, wherein: specific binding of control=total binding (cpm)--non-specific binding (cpm); and specific binding of test compound=total binding (cpm)--non-specific binding (cpm).

gastrin receptor = biological target: T2, gastrin receptor (Cavia porcellus, UniProt H0VZC5); experiment: Gastrin receptor antagonism: displacement of 125I-labeled gastrin from gastric glands; format: binding, guinea pig (male Hartley); settings: guinea pig fundic gastric glands; 125I-gastrin 0.2 nM; 30 min, 25° C.
T2 construct: stomach was extracted from each animal immediately, from which gastric glands were prepared; from tissue; host or cells: gastric (fundic) glands of male Hartley guinea pigs
T2 sequence (H0VZC5 1-426): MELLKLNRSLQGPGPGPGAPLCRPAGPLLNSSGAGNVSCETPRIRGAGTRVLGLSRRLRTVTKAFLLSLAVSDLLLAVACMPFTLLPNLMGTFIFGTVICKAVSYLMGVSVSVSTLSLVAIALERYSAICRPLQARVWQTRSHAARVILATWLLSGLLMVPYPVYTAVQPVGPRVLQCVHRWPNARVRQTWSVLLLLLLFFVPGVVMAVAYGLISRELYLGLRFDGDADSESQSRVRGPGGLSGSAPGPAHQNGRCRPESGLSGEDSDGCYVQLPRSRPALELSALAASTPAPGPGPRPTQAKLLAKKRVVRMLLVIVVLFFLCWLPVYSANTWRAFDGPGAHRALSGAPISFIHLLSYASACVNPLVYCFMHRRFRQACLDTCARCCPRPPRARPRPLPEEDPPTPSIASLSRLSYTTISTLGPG
Method: as §1, §2
(1) Gastrin Receptor Antagonism
Preparation of gastric glands
Male Hadley guinea pigs (450-600 g) were killed by bleeding and stomach was extracted from each animal immediately, from which gastric glands were prepared.
Preparation of test compounds and procedures of displacing assay A 1M solution of a compound to be tested in DMSO is prepared and diluted with 50% DMSO to obtain a ten-fold dilution series.
The reaction is initiated by the addition of gastric glands to solutions of different concentration each containing ^125 I-labeled gastrin (final concentration, 0.2 nM). The mixture is incubated for 30 min at 25° C., centrifuged at 2000 rpm for 5 min and the supernatant is removed by aspiration. To the pellet is added ice-cooled incubation buffer and mixed gently, followed by an immediate centrifugation and removal of the supernatant by aspiration. The radioactivity is counted on gamma counter. The same procedure was repeated using 50% DMSO solution or human gastrin I (final concentration, 2 μM) instead of a solution of test compound so as to obtain the control value regarding total binding or the value regarding non-specific binding, respectively.
as §7

gastric acid secretion = experiment: Inhibitory effect on pentagastrin-stimulated gastric acid secretion in anesthetized rat (perfused stomach, Schild method); format: in vivo, rat (Sprague Dawley); settings: intraduodenal (i.d.), 0.5% M.C. suspension
Text: Anti-acid secreting function of carbamoylmethylurea derivative (I) of the present invention has been confirmed by the in vivo experiment (cf. Schild Method; Experiment 1 below). […] From the results of these experiments, it is apparent that the carbamoylmethylurea derivative (I) has an anti-acid secreting function, and is an excellent gastrin receptor antagonist and/or CCK-B receptor antagonist which has enough functional separativeness from CCK-A receptor.
Experiment 1 In Vivo Test
Evaluation of Inhibitory Effect on Gastric Acid Secretion by Child Method
Twenty four hour starved (ad libitum for water) male Sprague Daily rats (8-week-old) were anesthetized with urethane (1.5 g/kg S.C.) and kept breathing with esophagus cannulas. After laparotomy, esophagus cannulas were inserted orally up to proventriculus and ligated around gastric cardiac. Perfusion cannulas were inserted from duodenum into stomach and ligated around pylorus. Another cannulas were placed into duodenum and ligated for administration of drug. After sutra of abdomen, stomach was perfused via the esophagus cannulas with physiological saline (37° C.) while collecting perfusate for a 15 min interval. The perfusate was subjected to titration with 0.001N NaOH solution to determine the acidity. When the basal acid secretion became stable, pentagastrin ([…])was administered in a sustained manner via common carotid vein for about 90 min until the acid secretion reached approximately the highest level, when a test compound (0.5% M.C. suspension) was administered into duodenum through cannulas. The perfusate was collected for a 15 min interval to monitor the acid secretion for 90 min. The percent inhibition was calculated as follows:
Percent inhibition (%)=100×(A-B)/(C-B)
A: the minimum value of total acidity observed after the administration of a test compound;
B: the total acidity obtained immediately before the administration of pentagastrin; and
C: the total acidity obtained immediately before the administration of a test compound.

CCK-A receptor = biological target: T3, CCK-A receptor (Mus musculus, UniProt O08786); experiment: CCK-A receptor antagonism: displacement of [3H]CCK-8 from crude membrane of pancreas; format: binding, mouse (male ddY); settings: [3H]CCK-8 1 nM, 90 min, 25° C.
T3 construct: crude membrane specimen from mouse pancreas; from tissue; host or cells: pancreas of male ddY mice, crude membranes
T3 sequence (O08786 1-436): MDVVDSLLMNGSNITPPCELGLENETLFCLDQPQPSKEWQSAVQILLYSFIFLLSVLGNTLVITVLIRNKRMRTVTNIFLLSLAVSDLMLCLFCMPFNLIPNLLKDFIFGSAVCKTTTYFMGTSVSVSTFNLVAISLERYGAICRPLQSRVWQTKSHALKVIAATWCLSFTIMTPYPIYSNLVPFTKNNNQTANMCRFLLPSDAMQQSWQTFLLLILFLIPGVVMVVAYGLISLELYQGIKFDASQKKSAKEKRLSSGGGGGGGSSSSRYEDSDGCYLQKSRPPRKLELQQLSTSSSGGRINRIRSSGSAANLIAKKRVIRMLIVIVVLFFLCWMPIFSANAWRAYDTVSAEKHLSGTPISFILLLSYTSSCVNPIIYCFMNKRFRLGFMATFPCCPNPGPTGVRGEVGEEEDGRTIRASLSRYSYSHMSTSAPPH
Method: as §1, §2, §3, §4, §5, §6, §7

Compound | IC50 (CCK-B receptor) [nM] | IC50 (gastrin receptor) [nM] | Inhibitory Effect on acid secretion in rat ED50, i.d. (gastric acid secretion) [mg/kg] | IC50 (CCK-A receptor) [nM] | Inhibitory Effect on acid secretion in rat ED50, i.d. (gastric acid secretion; sodium salt) [mg/kg] | Inhibitory Effect on acid secretion in rat ED50, i.d. (gastric acid secretion; calcium salt) [mg/kg] | ED50 (gastric acid secretion; Rattus norvegicus) [mg/kg] | ED50 (gastric acid secretion) [mg/kg]
CC(C)(C)OC(=O)CN(C(=O)CNC(=O)Nc1cccc(C(=O)O)c1)c1ccccc1C(=O)c1ccccc1 [Compound 8h] | 64 | 4 | 0.014 | 5000 |  |  |  | 
CC(C)(C)OC(=O)CN(C(=O)CNC(=O)Nc1cccc(C(=O)O)c1)c1ccccc1C(=O)c1ccccc1 [Compound 8ha, 2-[(tert-Butoxycarbonylmethyl)-[3-(m-(carboxylphenyl)ureidomethylcarbonyl]]aminobenzophenone sodium salt] | 42 | 2 |  | 3400 | 0.003 |  |  | 
CC(C)(C)OC(=O)CN(C(=O)CNC(=O)Nc1cccc(C(=O)O)c1)c1ccccc1C(=O)c1ccccc1 [Compound 8hb, 2-[(tert-Butoxycarbonylmethyl)-[3-(m-(carboxyphenyl)ureidomethylcarbonyl]]aminobenzophenone calcium salt] | 54 | 3 |  |  |  | 0.007 |  | 
COC(=O)c1cccc(NC(=O)NCC(=O)N(CC(=O)OC(C)(C)C)c2ccccc2C(=O)c2ccccc2)c1 [Compound 9l, 2-(N-(tert-Butoxycarbonylmethyl)-N'-(m-(carbomethoxy)phenyl)ureidomethylcarbonylamino)benzophenone] | 56 | 7 |  | 1350 |  |  | 0.04 | 
CC(C)(C)OC(=O)CN(C(=O)CNC(=O)Nc1cccc(C(F)(F)F)c1)c1ccccc1C(=O)C1CCCCC1 [Compound 15b, Cyclohexyl-(2-(N-(t-butoxycarbonylmethyl)-N-(N'-(m-trifluoromethylphenyl)ureidomethylcarbonyl)amino)phenyl)ketone] | 6 | 5 |  | 1150 |  |  | 0.026 | 
Cc1cccc(NC(=O)N[C@@H]2N=C(c3ccccc3)c3ccccc3N(CC(=O)c3ccccc3C)C2=O)c1 [YM-022, reference compound] | 2 | 2 |  | 100 |  |  |  | 0.107

— US5739162A, “Carbamoylmethylurea derivatives” (Shionogi & Co., Ltd., priority 1994, dated 1998)
